In publication PMC3561256, “Anti-infectious and anti-inflammatory effects of peptide fragments sequentially derived from the antimicrobial peptide centrocin 1 isolated from the green sea urchin, Strongylocentrotus droebachiensis” (AMB Express, 2012):

Key:
[1] = tested on: S. aureus (ATCC 12600); assay: Minimal microbicidal concentration (MMC99) assay; format: cell-based, Staphylococcus aureus
Method: (§1) All the synthesised peptides were tested for their in vitro microbicidal activity against S. aureus (American Type Culture Collection (ATCC) 12600) and P. aeruginosa (ATCC 15442) using a minimal microbicidal concentration (MMC) assay as previously described (Haversen et al. [2010]). Bacteria were cultured in 3.7% brain heart infusion (BHI) broth (Difco, BD Diagnostics, Franklin Lakes, NJ) on a shaker at 250 rpm overnight at 37°C. The culture was diluted 1:10 in fresh 3.7% BHI and incubated for two additional hours to reach log-phase growth. The bacteria were pelleted by centrifugation at 900 × g and suspended in 0.037% BHI to a concentration of 10^7 CFU/mL, estimated by measuring optical density at 600 nm (OD600). To investigate the influence of physiological conditions on microbicidal effect of the peptides, four different assay media were used: 0.037% BHI, 0.037% BHI supplemented with 85 or 150 mM sodium chloride (NaCl), and 50% heat inactivated simulated wound fluid (h.i. SWF) composed of a 50:50 mixture of 0.1% peptone (Oxoid, Basingstoke, UK) in 150 mM NaCl and fetal bovine serum (FBS; PAA Laboratories GmbH, Pasching, Austria), diluted two times in ultra pure water. The peptides were serially diluted by twofold steps from 200 to 1.56 mg/L in the assay media used, and 100 μL of the peptide solutions were mixed with 5 μL bacterial suspensions in a 96 well plate (Nunc, Roskilde, Denmark) and incubated at 37°C for two hours. An aliquot of 5 μL from each well was aspirated and added as drops onto blood agar plates (Columbia agar; Oxoid, Basingstoke, UK) supplemented with 5% defibrinated horse blood (Swedish National Veterinary Institute (SVA), Uppsala, Sweden), and the plates were incubated overnight at 37°C. All samples were processed as duplicates. The minimal test compound concentration causing ≥99% reduction of bacteria was defined as the MMC99. The concentration of the bacterial suspension used in the assay was confirmed by viable count estimation on blood agar plates (Oxoid).
(§2) CEN1 HC was further screened for microbicidal activity against a panel of microbial strains using the MMC99 assay, as described above, except using only two different assay media; 0.037% BHI and 50% h.i. SWF. The following microbial strains were tested for sensitivity: S. aureus (ATCC 12600), MRSA (ATCC 33591), Staphylococcus epidermidis (ATCC 12228), Streptococcus pyogenes (ATCC 12344), Propionibacterium acnes (ATCC 6919) Escherichia coli (ATCC 11775), P. aeruginosa (ATCC 15442), Klebsiella pneumoniae (Culture collection, University of Gothenburg (CCUG) 59413, clinical isolate resistant to penicillins, cephalosporins, aztreonam and carbapenems, with the reference strain ATCC 13883), Acinetobacter baumannii (CCUG 58437, clinical isolate resistant to tobramycin, trimsulfa, ciprofloxacin, cefotaxim, ceftazidim, meropenem, pipera/tazobactam, with the reference strain ATCC 19606) and the yeast strain Candida albicans (ATCC 64549). Mupirocin (GlaxoSmithKline) and fusidic acid (LEO Pharma) were used as comparative control antibiotics.

[2] = tested on: P. aeruginosa (ATCC 15442); assay: Minimal microbicidal concentration (MMC99) assay; format: cell-based, Pseudomonas aeruginosa; conditions: for MMC99, P. aeruginosa ATCC 15442, 0.037% BHI / MMC99, P. aeruginosa ATCC 15442, 50% h.i. SWF: Table 3 panel
Method: as §1, §2

[3] = tested on: MRSA (ATCC 33591); assay: Minimal microbicidal concentration (MMC99) assay; format: cell-based, methicillin-resistant S. aureus; conditions: Table 3 panel, up to 200 mg/L, duplicates, maximum of at least two independent experiments
Method: as §1
CEN1 HC was further screened for microbicidal activity against a panel of microbial strains using the MMC99 assay, as described above, except using only two different assay media; 0.037% BHI and 50% h.i. SWF. […]

[4] = tested on: Acinetobacter baumannii (CCUG 58437); assay: Minimal microbicidal concentration (MMC99) assay; format: cell-based; conditions: Table 3 panel, multiresistant clinical isolate, up to 200 mg/L, duplicates, maximum of at least two independent experiments
Method: as §1, §2

[5] = tested on: Candida albicans (ATCC 64549); assay: Minimal microbicidal concentration (MMC99) assay; format: cell-based; conditions: Table 3 panel, yeast, up to 200 mg/L, duplicates, maximum of at least two independent experiments
Method: as §1, §2

[6] = tested on: Escherichia coli (ATCC 11775); assay: Minimal microbicidal concentration (MMC99) assay; format: cell-based; conditions: Table 3 panel, up to 200 mg/L, duplicates, maximum of at least two independent experiments
Method: as §1, §2

[7] = tested on: Klebsiella pneumoniae (CCUG 59413); assay: Minimal microbicidal concentration (MMC99) assay; format: cell-based; conditions: Table 3 panel, multiresistant clinical isolate, up to 200 mg/L, duplicates, maximum of at least two independent experiments
Method: as §1, §2

[8] = tested on: Staphylococcus epidermidis (ATCC 12228); assay: Minimal microbicidal concentration (MMC99) assay; format: cell-based; conditions: Table 3 panel, up to 200 mg/L, duplicates, maximum of at least two independent experiments
Method: as §1, §2

[9] = tested on: Streptococcus pyogenes (ATCC 12344); assay: Minimal microbicidal concentration (MMC99) assay; format: cell-based; conditions: Table 3 panel, up to 200 mg/L, duplicates, maximum of at least two independent experiments
Method: as §1, §2

[10] = tested on: Propionibacterium acnes (ATCC 6919); assay: Minimal microbicidal concentration (MMC99) assay; format: cell-based; conditions: Table 3 panel, up to 200 mg/L, duplicates, maximum of at least two independent experiments
Method: as §1, §2

[11] = tested on: S. aureus (ATCC 12600); assay: In vitro multistep resistance assay (MMC99 after passages); format: cell-based, Staphylococcus aureus
Method: (§3) S. aureus (ATCC 12600) and MRSA (ATCC 33591) were cultured according to the protocol described above and diluted to 10^8 CFU/mL in 0.037% BHI as estimated by measuring OD600. The multistep resistance assay was performed as previously described (Kosowska-Shick et al. [2006]). Peptide dilutions were prepared in twofold dilution steps in the concentration range from 0.75 mg/L to 96 mg/L in a volume of 1 mL using 0.37% BHI medium. The same peptide concentration range was used during all passages and new peptide dilutions were prepared each day from stock solutions. Mupirocin (Applichem), the active substance in the conventional topical antibiotic Bactroban, was used as a comparator. The antibiotic control was handled in the same way as the peptides except that the concentration range of mupirocin was 0.003 mg/L to 3 mg/L.
(§4) An aliquot of 10 μL (10^8 CFU/mL) of the bacterial suspension was added to the peptide dilutions, to the positive antibiotic control, and to a negative control incubated without peptide, and the suspensions were incubated at 37°C for 24 h. Turbidity of the overnight cultures was determined by OD600 measurements. The OD600 of bacteria/peptide suspensions was calculated by subtracting the OD600 of the peptide mixed with medium from the OD600 measured on the overnight cultures. […]

[12] = tested on: MRSA (ATCC 33591); assay: as above; format: cell-based, methicillin-resistant S. aureus
Method: as §3, §4

[13] = Table 2 screen, medium 0.037% BHI + 85 mM NaCl, 2 h at 37°C, up to 200 mg/L, duplicates, maximum of at least two independent experiments
[14] = Table 2 screen, medium 0.037% BHI + 150 mM NaCl, 2 h at 37°C, up to 200 mg/L, duplicates, maximum of at least two independent experiments
[15] = Table 3 panel, up to 200 mg/L, duplicates, maximum of at least two independent experiments
[16] = up to 200 mg/L, duplicates, maximum of at least two independent experiments
[17] = after 14 days of cultivation under selection pressure, 0.37% BHI, 24 h passages
[18] = multistep resistance assay, before passaging (day 0)

Compound | MMC99, S. aureus ATCC 12600, 50% h.i. SWF [1, 15] | MMC99, P. aeruginosa ATCC 15442, 0.037% BHI [2, 16] | MMC99, P. aeruginosa ATCC 15442, 50% h.i. SWF [2, 16] | MMC99, MRSA ATCC 33591, 0.037% BHI [3] | MMC99, MRSA ATCC 33591, 50% h.i. SWF [3] | MMC99, A. baumannii CCUG 58437, 0.037% BHI [4] | MMC99, A. baumannii CCUG 58437, 50% h.i. SWF [4] | MMC99, C. albicans ATCC 64549, 0.037% BHI [5] | MMC99, C. albicans ATCC 64549, 50% h.i. SWF [5] | MMC99, E. coli ATCC 11775, 0.037% BHI [6] | MMC99, E. coli ATCC 11775, 50% h.i. SWF [6] | MMC99, K. pneumoniae CCUG 59413, 0.037% BHI [7] | MMC99, K. pneumoniae CCUG 59413, 50% h.i. SWF [7] | MMC99, S. epidermidis ATCC 12228, 0.037% BHI [8] | MMC99, S. epidermidis ATCC 12228, 50% h.i. SWF [8] | MMC99, S. pyogenes ATCC 12344, 0.037% BHI [9] | MMC99, S. pyogenes ATCC 12344, 50% h.i. SWF [9] | further results
GW(Br)FKKTFHKVSHAVKSGIHA [CEN1 HC-Br (1–20), C-terminal truncated variant of CEN1 HC-Br] | – | – | – | – | – | – | – | – | – | – | – | – | – | – | – | – | – | S. aureus MMC99, 0.037% BHI + 85 mM NaCl [1, 13]: >200 mg/L; S. aureus MMC99, 0.037% BHI + 150 mM NaCl [1, 14]: >200 mg/L; S. aureus MMC99, 0.037% BHI ([1]; Table 2 screen, medium 0.037% BHI, ≥99% reduction of bacteria, 2 h at 37°C, tested up to 200 mg/L, duplicates, maximum value from at least two independent experiments): 12.5 mg/L; S. aureus MMC99, 0.037% BHI with 85 mM or 150 mM NaCl ([1]; text summary over both NaCl concentrations of Table 2a): ≥ 200 mg/L; P. aeruginosa MMC99, 0.037% BHI + 85 mM NaCl [2, 13]: 12.5 mg/L; P. aeruginosa MMC99, 0.037% BHI + 150 mM NaCl [2, 14]: 25 mg/L; P. aeruginosa MMC99, 0.037% BHI ([2]; Table 2 screen, medium 0.037% BHI, 2 h at 37°C, up to 200 mg/L, duplicates, maximum of at least two independent experiments): 12.5 mg/L; P. aeruginosa MMC99, 0.037% BHI with 85 mM or 150 mM NaCl ([2]; text summary over both NaCl concentrations of Table 2b, compared to 0.037% BHI only): 12.5 to 100.0 mg/L
CC(=O)O[C@H]1C[C@@]2(C)[C@@H](C[C@@H](O)[C@H]3[C@@]4(C)CC[C@@H](O)[C@@H](C)[C@@H]4CC[C@@]32C)/C1=C(\CCC=C(C)C)C(=O)O [fusidic acid] | 6.3 mg/L | >200 mg/L | >200 mg/L | 6.3 mg/L | 6.3 mg/L | >200 mg/L | >200 mg/L | >200 mg/L | >200 mg/L | >200 mg/L | >200 mg/L | >200 mg/L | >200 mg/L | 6.3 mg/L | 6.3 mg/L | >200 mg/L | >200 mg/L | –
C/C(=C\C(=O)OCCCCCCCCC(=O)O)C[C@@H]1OC[C@H](C[C@@H]2O[C@H]2[C@@H](C)[C@H](C)O)[C@@H](O)[C@H]1O [mupirocin, Mupirocin] | 3.1 mg/L | >200 mg/L | >200 mg/L | 3.1 mg/L | 3.1 mg/L | >200 mg/L | >200 mg/L | >200 mg/L | >200 mg/L | >200 mg/L | >200 mg/L | >200 mg/L | >200 mg/L | 3.1 mg/L | 3.1 mg/L | 6.3 mg/L | 3.1 mg/L | MMC99, S. aureus ATCC 12600, 0.037% BHI ([1]; Table 3 panel, 0.037% BHI, up to 200 mg/L, duplicates, maximum of at least two independent experiments, comparators Bactroban 2% ointment, Fucidin 2% cream): 3.1 mg/L; MMC99, P. acnes ATCC 6919, 0.037% BHI ([10]; 0.037% BHI): >200 mg/L; MMC99, P. acnes ATCC 6919, 50% h.i. SWF ([10]; 50% h.i. SWF): >200 mg/L; Concentration killing ≥99% of the bacteria (MMC99), day 14 [11, 17]: 24 mg/L; Concentration killing ≥99% of the bacteria (MMC99), day 0 [11, 18]: 3 mg/L; Concentration killing ≥99% of the bacteria (MMC99), day 14 [12, 17]: > 384 mg/L; Concentration killing ≥99% of the bacteria (MMC99), day 0 [12, 18]: 3 mg/L
